From PMC5218480 (PLoS ONE, 2017)

Tested on: MV-4-11 cells
Assay: Gene expression microarray analysis (Affymetrix PrimeView) and GSEA
Assay type: cell-based, human
Design: RFU PODN (11730768_x_at) / Fold change /veh PODN (11730768_x_at) / RFU LINC00158 (11744669_a_at) / Fold change /veh LINC00158 (11744669_a_at) / RFU DUSP10 (11751237_a_at) / Fold change /veh DUSP10 (11751237_a_at) / RFU ID3 (11757404_x_at) / Fold change /veh ID3 (11757404_x_at) / RFU PLEKHG5 (11737974_s_at) / Fold change /veh PLEKHG5 (11737974_s_at) / RFU LRRC4B (11730491_at) / Fold change /veh LRRC4B (11730491_at) / RFU GIMAP4 (11747438_a_at) / Fold change /veh GIMAP4 (11747438_a_at) / RFU KRT8 (11758183_x_at) / Fold change /veh KRT8 (11758183_x_at) / RFU CNN1 (11734310_a_at) / Fold change /veh CNN1 (11734310_a_at) / RFU VPS37D (11726825_at) / Fold change /veh VPS37D (11726825_at) / RFU C10orf10 (11716522_x_at) / Fold change /veh C10orf10 (11716522_x_at) / RFU KIR2DL2 /// KIR2DL4 /// KIR2DL5A /// KIR2DL5B /// KIR2DS1 /// KIR2DS2 /// KIR2DS3 /// KIR2DS4 /// KIR3DL3 /// KIR3DL3 /// KIR3DS1 (11738374_at) / Fold change /veh KIR2DL2 /// KIR2DL4 /// KIR2DL5A /// KIR2DL5B /// KIR2DS1 /// KIR2DS2 /// KIR2DS3 /// KIR2DS4 /// KIR3DL3 /// KIR3DL3 /// KIR3DS1 (11738374_at) / RFU C1QL1 (11718748_at) / Fold change /veh C1QL1 (11718748_at) / RFU TMPRSS4 (11747572_a_at) / Fold change /veh TMPRSS4 (11747572_a_at) / RFU HAMP (11756126_x_at) / Fold change /veh HAMP (11756126_x_at) / RFU RNFT2 (11725882_a_at) / Fold change /veh RNFT2 (11725882_a_at) / RFU NR4A2 (11747474_a_at) / Fold change /veh NR4A2 (11747474_a_at) / RFU ABCC12 (11746883_a_at) / Fold change /veh ABCC12 (11746883_a_at) / RFU TMEM136 (11760407_x_at) / Fold change /veh TMEM136 (11760407_x_at) / RFU CLDN22 /// WWC2 (11732394_at) / Fold change /veh CLDN22 /// WWC2 (11732394_at) / RFU HLA-DPB1 (11760878_x_at) / Fold change /veh HLA-DPB1 (11760878_x_at) / RFU SPINT1 (11716480_a_at) / Fold change /veh SPINT1 (11716480_a_at) / RFU GAP43 (11754022_s_at) / Fold change /veh GAP43 (11754022_s_at) / RFU A4GNT (11735810_at) / Fold change /veh A4GNT (11735810_at) / RFU PRB3 (11715151_x_at) / Fold change /veh PRB3 (11715151_x_at) / RFU TUBB4B (11761932_at) / Fold change /veh TUBB4B (11761932_at) / RFU CAPN14 (11732068_a_at) / Fold change /veh CAPN14 (11732068_a_at) / RFU TMCC2 (11721928_a_at) / Fold change /veh TMCC2 (11721928_a_at) / RFU IRGQ (11745062_a_at) / Fold change /veh IRGQ (11745062_a_at) / RFU FAM174B (11720279_a_at) / Fold change /veh FAM174B (11720279_a_at) / RFU TMPRSS4 (11748680_a_at) / Fold change /veh TMPRSS4 (11748680_a_at) / RFU FAM212B (11763350_a_at) / Fold change /veh FAM212B (11763350_a_at) / RFU PLEKHG5 (11743358_a_at) / Fold change /veh PLEKHG5 (11743358_a_at) / RFU ZSCAN30 (11745921_a_at) / Fold change /veh ZSCAN30 (11745921_a_at) / RFU CMKLR1 (11741424_a_at) / Fold change /veh CMKLR1 (11741424_a_at) / RFU LOC101060620 /// MAPK8IP1 (11723275_at) / Fold change /veh LOC101060620 /// MAPK8IP1 (11723275_at) / RFU SPTSSB (11747773_x_at) / Fold change /veh SPTSSB (11747773_x_at) / RFU PRSS12 (11739890_at) / Fold change /veh PRSS12 (11739890_at) / RFU BIN1 (11741810_x_at) / Fold change /veh BIN1 (11741810_x_at) / RFU WNT11 (11732464_a_at) / Fold change /veh WNT11 (11732464_a_at) / RFU C10orf10 (11716521_a_at) / Fold change /veh C10orf10 (11716521_a_at) / RFU C5orf56 (11738089_at) / Fold change /veh C5orf56 (11738089_at) / RFU CYB561 (11721691_x_at) / Fold change /veh CYB561 (11721691_x_at) / RFU ANKRD19P (11752326_a_at) / Fold change /veh ANKRD19P (11752326_a_at) / RFU OR2T12 /// OR2T33 /// OR2T8 (11738714_s_at) / Fold change /veh OR2T12 /// OR2T33 /// OR2T8 (11738714_s_at) / RFU VCAN (11748164_a_at) / Fold change /veh VCAN (11748164_a_at) / RFU JSRP1 (11732532_at) / Fold change /veh JSRP1 (11732532_at) / RFU KRTAP10-11 (11738290_x_at) / Fold change /veh KRTAP10-11 (11738290_x_at) / RFU MYO3A (11730013_a_at) / Fold change /veh MYO3A (11730013_a_at) / RFU EBF3 (11725865_a_at) / Fold change /veh EBF3 (11725865_a_at) / RFU CAMK2N1 (11719241_x_at) / Fold change /veh CAMK2N1 (11719241_x_at) / RFU C5orf56 (11738088_a_at) / Fold change /veh C5orf56 (11738088_a_at) / RFU OLFML3 (11715873_a_at) / Fold change /veh OLFML3 (11715873_a_at) / RFU LOC100653217 /// NTM (11731650_a_at) / Fold change /veh LOC100653217 /// NTM (11731650_a_at) / RFU MAPK11 (11762145_a_at) / Fold change /veh MAPK11 (11762145_a_at) / RFU FIZ1 (11724087_x_at) / Fold change /veh FIZ1 (11724087_x_at) / RFU OASL (11726364_x_at) / Fold change /veh OASL (11726364_x_at) / RFU SOX15 (11748057_x_at) / Fold change /veh SOX15 (11748057_x_at) / RFU CD79A (11719716_a_at) / Fold change /veh CD79A (11719716_a_at) / RFU HIST1H1D (11736915_at) / Fold change /veh HIST1H1D (11736915_at) / RFU CASKIN2 (11723855_a_at) / Fold change /veh CASKIN2 (11723855_a_at) / RFU LOC730098 (11760151_x_at) / Fold change /veh LOC730098 (11760151_x_at) / RFU OR4N2 (11742367_at) / Fold change /veh OR4N2 (11742367_at) / RFU PRRT2 (11749266_a_at) / Fold change /veh PRRT2 (11749266_a_at) / RFU SNX32 (11753110_a_at) / Fold change /veh SNX32 (11753110_a_at) / RFU CDHR5 (11726645_a_at) / Fold change /veh CDHR5 (11726645_a_at) / RFU RCAN1 (11760418_a_at) / Fold change /veh RCAN1 (11760418_a_at) / RFU FAM167A (11723789_a_at) / Fold change /veh FAM167A (11723789_a_at) / RFU FAM26E (11764081_at) / Fold change /veh FAM26E (11764081_at) / RFU ISYNA1 (11749810_s_at) / Fold change /veh ISYNA1 (11749810_s_at) / RFU ACY1 (11761880_at) / Fold change /veh ACY1 (11761880_at) / RFU 11764098_at / Fold change /veh 11764098_at / RFU SAMD14 (11745864_x_at) / Fold change /veh SAMD14 (11745864_x_at) / RFU NPB (11741838_a_at) / Fold change /veh NPB (11741838_a_at) / RFU TMPRSS6 (11731388_a_at) / Fold change /veh TMPRSS6 (11731388_a_at) / RFU KRTAP10-2 (11738614_at) / Fold change /veh KRTAP10-2 (11738614_at) / RFU ARHGAP8 /// PRR5-ARHGAP8 (11727945_x_at) / Fold change /veh ARHGAP8 /// PRR5-ARHGAP8 (11727945_x_at) / RFU KRTAP5-7 /// NADSYN1 (11734609_at) / Fold change /veh KRTAP5-7 /// NADSYN1 (11734609_at) / RFU RASL12 (11751679_a_at) / Fold change /veh RASL12 (11751679_a_at) / RFU CDKN2B (11736163_a_at) / Fold change /veh CDKN2B (11736163_a_at) / RFU PRF1 (11729649_at) / Fold change /veh PRF1 (11729649_at) / RFU, ZNF638 /// ZNF638-IT1 / Fold change vs veh, ZNF638 /// ZNF638-IT1 / RFU, PANK3 / Fold change vs veh, PANK3 / RFU, SH3YL1 / Fold change vs veh, SH3YL1 / RFU, ZEB2 / Fold change vs veh, ZEB2 / RFU, NRIP1 / Fold change vs veh, NRIP1 / RFU, PTTG1IP / Fold change vs veh, PTTG1IP / RFU, CAPN2 / Fold change vs veh, CAPN2 / RFU, MED14 / Fold change vs veh, MED14 / RFU, SNORA58 / Fold change vs veh, SNORA58 / RFU, C1orf63 / Fold change vs veh, C1orf63 / RFU, LRRFIP1 / Fold change vs veh, LRRFIP1 / RFU, NDUFAF7 / Fold change vs veh, NDUFAF7 / RFU, SLC12A2 / Fold change vs veh, SLC12A2 / RFU, IBTK / Fold change vs veh, IBTK / RFU, ESF1 / Fold change vs veh, ESF1 / Fold change vs veh, TMEM50B / RFU, TAOK1 / Fold change vs veh, TAOK1 / RFU, ACBD3 / Fold change vs veh, ACBD3 / RFU, TMA16 / Fold change vs veh, TMA16 / RFU, RWDD3 / Fold change vs veh, RWDD3 / RFU, BCAT1 / Fold change vs veh, BCAT1 / RFU, EDEM3 / Fold change vs veh, EDEM3 / RFU, TMEM33 / Fold change vs veh, TMEM33 / RFU, WDR75 / Fold change vs veh, WDR75 / RFU, AHCTF1 / Fold change vs veh, AHCTF1 / RFU, TFRC / Fold change vs veh, TFRC / RFU, ZDHHC17 / Fold change vs veh, ZDHHC17 / RFU, NOM1 / Fold change vs veh, NOM1 / RFU, ARL8B / Fold change vs veh, ARL8B / RFU, ZBTB11 / Fold change vs veh, ZBTB11 / RFU, TAMM41 / Fold change vs veh, TAMM41 / RFU, KIAA1704 /// LOC100996395 / Fold change vs veh, KIAA1704 /// LOC100996395 / RFU, ING1 / Fold change vs veh, ING1 / RFU, TRMT61B / Fold change vs veh, TRMT61B / RFU, FUBP3 / Fold change vs veh, FUBP3 / RFU, TP53 / Fold change vs veh, TP53 / RFU, TNKS2 / Fold change vs veh, TNKS2 / RFU, ZFP14 / Fold change vs veh, ZFP14 / RFU, ACTR2 / Fold change vs veh, ACTR2 / RFU, PPP3R1 / Fold change vs veh, PPP3R1 / RFU, PIK3R1 / Fold change vs veh, PIK3R1 / RFU, HNRNPA1 / Fold change vs veh, HNRNPA1 / RFU, RNF170 / Fold change vs veh, RNF170 / RFU, ZNF28 / Fold change vs veh, ZNF28 / RFU, RNGTT / Fold change vs veh, RNGTT / RFU, OGT / Fold change vs veh, OGT / RFU, BRD1 / Fold change vs veh, BRD1 / RFU, MARS / Fold change vs veh, MARS / RFU, ZNF655 / Fold change vs veh, ZNF655 / RFU, FAHD1 / Fold change vs veh, FAHD1 / RFU, BDP1 / Fold change vs veh, BDP1 / RFU, LRRCC1 / Fold change vs veh, LRRCC1 / RFU, ARID1A / Fold change vs veh, ARID1A / RFU, ZNF146 / Fold change vs veh, ZNF146 / RFU, ZNF330 / Fold change vs veh, ZNF330 / RFU, GPN3 / Fold change vs veh, GPN3 / RFU, C9orf123 / Fold change vs veh, C9orf123 / RFU, N4BP2L2 / Fold change vs veh, N4BP2L2 / RFU, ARFIP1 / Fold change vs veh, ARFIP1 / RFU, FAM179B / Fold change vs veh, FAM179B / RFU, BCL10 / Fold change vs veh, BCL10 / RFU, UHRF1BP1L / Fold change vs veh, UHRF1BP1L / RFU, BET1 / Fold change vs veh, BET1 / RFU, CNOT2 / Fold change vs veh, CNOT2 / RFU, ZNF268 / Fold change vs veh, ZNF268 / Fold change vs veh, ZNF507 / RFU, DGCR2 / Fold change vs veh, DGCR2 / RFU, WDSUB1 / Fold change vs veh, WDSUB1 / Fold change vs veh, HSP90B1 /// MIR3652 / RFU, ADSS / Fold change vs veh, ADSS / RFU, GK / Fold change vs veh, GK / RFU, ZNF148 / Fold change vs veh, ZNF148 / RFU, TAF9 / Fold change vs veh, TAF9 / RFU, SLC1A5 / Fold change vs veh, SLC1A5 / RFU, SLMO2 / Fold change vs veh, SLMO2 / RFU, ABCC4 / Fold change vs veh, ABCC4 / RFU, LOC101060439 /// RAP1B / Fold change vs veh, LOC101060439 /// RAP1B / RFU, RFX7 / Fold change vs veh, RFX7 / RFU, GTPBP10 / Fold change vs veh, GTPBP10 / RFU, CNEP1R1 / Fold change vs veh, CNEP1R1 / RFU, BIVM-ERCC5 /// ERCC5 / Fold change vs veh, BIVM-ERCC5 /// ERCC5 / RFU, ILF3 / Fold change vs veh, ILF3 / RFU 11762660_at / Fold change /veh 11762660_at / RFU VCAN (11757783_s_at) / Fold change /veh VCAN (11757783_s_at) / RFU DDX43 (11728927_at) / Fold change /veh DDX43 (11728927_at) / RFU KRT8 (11758188_x_at) / Fold change /veh KRT8 (11758188_x_at) / RFU NKD1 (11759106_at) / Fold change /veh NKD1 (11759106_at) / RFU SRD5A1 (11742802_a_at) / Fold change /veh SRD5A1 (11742802_a_at) / RFU TPSAB1 /// TPSB2 (11721975_s_at) / Fold change /veh TPSAB1 /// TPSB2 (11721975_s_at) / RFU GSTM3 (11746129_a_at) / Fold change /veh GSTM3 (11746129_a_at) / RFU IL23R (11737362_x_at) / Fold change /veh IL23R (11737362_x_at) / RFU TMEM51 (11727254_a_at) / Fold change /veh TMEM51 (11727254_a_at) / RFU PIWIL2 (11732686_x_at) / Fold change /veh PIWIL2 (11732686_x_at) / RFU ORM1 (11744905_x_at) / Fold change /veh ORM1 (11744905_x_at) / RFU CCDC152 (11743942_at) / Fold change /veh CCDC152 (11743942_at) / RFU ECM1 (11717891_a_at) / Fold change /veh ECM1 (11717891_a_at) / RFU IL23R (11748794_a_at) / Fold change /veh IL23R (11748794_a_at) / RFU TNFAIP8L3 (11732012_x_at) / Fold change /veh TNFAIP8L3 (11732012_x_at) / RFU MBOAT4 (11741988_at) / Fold change /veh MBOAT4 (11741988_at) / RFU 11764193_at / Fold change /veh 11764193_at / RFU TMEM53 (11763286_at) / Fold change /veh TMEM53 (11763286_at) / RFU MAGEB2 (11727129_at) / Fold change /veh MAGEB2 (11727129_at) / RFU TMEM200A (11744735_a_at) / Fold change /veh TMEM200A (11744735_a_at) / RFU CCDC152 (11751479_a_at) / Fold change /veh CCDC152 (11751479_a_at) / RFU FAM211A (11726209_a_at) / Fold change /veh FAM211A (11726209_a_at) / RFU RGS16 (11746705_a_at) / Fold change /veh RGS16 (11746705_a_at) / RFU VCAN (11755009_s_at) / Fold change /veh VCAN (11755009_s_at) / RFU RHOB (11743442_s_at) / Fold change /veh RHOB (11743442_s_at) / RFU RGS16 (11720943_a_at) / Fold change /veh RGS16 (11720943_a_at) / RFU RGS16 (11720944_at) / Fold change /veh RGS16 (11720944_at) / RFU, VPS4B / Fold change vs veh, VPS4B / RFU, CREB1 / Fold change vs veh, CREB1 / RFU, DNAJC13 / Fold change vs veh, DNAJC13 / RFU, GNAQ / Fold change vs veh, GNAQ / RFU, CDK5R1 / Fold change vs veh, CDK5R1 / RFU, ZRANB3 / Fold change vs veh, ZRANB3 / RFU, CUL4A / Fold change vs veh, CUL4A / RFU, CCNY / Fold change vs veh, CCNY / RFU, UFL1 / Fold change vs veh, UFL1 / RFU, COG3 / Fold change vs veh, COG3 / RFU, DIAPH2 / Fold change vs veh, DIAPH2 / RFU, SKA2 / Fold change vs veh, SKA2 / RFU, AFF3 / Fold change vs veh, AFF3 / RFU, LMF1 / Fold change vs veh, LMF1 / RFU, IPO11 / Fold change vs veh, IPO11 / RFU, DFFB / Fold change vs veh, DFFB / RFU, FOXP1 / Fold change vs veh, FOXP1 / RFU, CARD8 / Fold change vs veh, CARD8 / RFU, STRN3 / Fold change vs veh, STRN3 / RFU, ADK / Fold change vs veh, ADK / RFU, RASSF2 / Fold change vs veh, RASSF2 / RFU, WIPF1 / Fold change vs veh, WIPF1 / RFU, LARP1B / Fold change vs veh, LARP1B / RFU, RASA1 / Fold change vs veh, RASA1 / RFU, RB1 / Fold change vs veh, RB1 / RFU, PPFIA1 / Fold change vs veh, PPFIA1 / RFU, MAT2A / Fold change vs veh, MAT2A / RFU, CCT5 / Fold change vs veh, CCT5 / RFU, WDR92 / Fold change vs veh, WDR92 / RFU, CUX1 / Fold change vs veh, CUX1 / RFU, TTC7A / Fold change vs veh, TTC7A / RFU, TMEM135 / Fold change vs veh, TMEM135 / RFU, DEPTOR / Fold change vs veh, DEPTOR / RFU, CPM / Fold change vs veh, CPM / RFU, DNAJB6 / Fold change vs veh, DNAJB6 / RFU, CACNA2D3 / Fold change vs veh, CACNA2D3 / RFU, DTX4 / Fold change vs veh, DTX4 / RFU, TFCP2 / Fold change vs veh, TFCP2 / RFU, GMCL1 /// GMCL1P1 / Fold change vs veh, GMCL1 /// GMCL1P1 / RFU, AEBP2 / Fold change vs veh, AEBP2 / RFU, SNHG1 /// SNORD22 /// SNORD25 /// SNORD26 /// SNORD27 /// SNORD28 /// SNORD29 /// SNORD31 / Fold change vs veh, SNHG1 /// SNORD22 /// SNORD25 /// SNORD26 /// SNORD27 /// SNORD28 /// SNORD29 /// SNORD31 / Fold change (Aza/veh), C12orf56 (ProbeSet 11735607_a_at) / Fold change (ACY-1035/veh), C12orf56 (ProbeSet 11735607_a_at) / Fold change (Aza/veh), FGFR1OP (ProbeSet 11751329_s_at) / Fold change (ACY-1035/veh), FGFR1OP (ProbeSet 11751329_s_at) / Fold change (Aza/veh), VPS36 (ProbeSet 11739960_a_at) / Fold change (ACY-1035/veh), VPS36 (ProbeSet 11739960_a_at) / RFU SYPL1 (11715823_x_at) / Fold change /veh SYPL1 (11715823_x_at) / RFU IGFBP7 (11715501_s_at) / Fold change /veh IGFBP7 (11715501_s_at) / RFU REEP3 (11722064_at) / Fold change /veh REEP3 (11722064_at) / RFU IGLL1 (11728026_x_at) / Fold change /veh IGLL1 (11728026_x_at): dose or concentration left out as unconfirmed
Conditions: ProbeSet 11722302_a_at; LIST B

Nc1ccc(-c2cccs2)cc1NC(=O)c1ccc2c(c1)cc(C1CC1)n2CCN1CCOCC1 [ACY-1035]
RFU, LRRFIP1: 143.54 RFU
